Entries after “also recorded” stand apart in the source; their conditions may differ. Bridge positions count the residues as written; N and C are the ends. Square brackets hold non-standard residues; d marks the D form. Peptide text beside a SMILES is read from it. S5 = C=CCCC[C@](C)(N)C(=O)O
Experiments:
[1] = target: T1, MafG (Homo sapiens, UniProt O15525); test: Surface plasmon resonance (SPR); assay type: binding
T1 construct: made in house; host or cells: E. coli Rosetta (DE3), vector pET15B, Ni-NTA purified
Experimental: To determine the affinity of binding between MafG and compound NIS, surface plasmon resonance (SPR) was performed with biotin-labeled compound NIS and His-MafG. For all SPR-binding measurements, a Biacore 100-Instrument (Biacore-GE) was used. Binding between MafG and biotin-labeled compound NIS peptide was performed by first immobilizing the biotin N1S peptide on a SA chip (Cytiva, Marlborough, MA). The binding buffer (150 mM NaCl, 10 mM HEPES, pH 7.5, 1 mM MgCl2, 1 mM […] (TCEP) and 0.05% P-20) was used. Biotin-compound NIS (1 μM) was injected at a rate of 10 μl min^−1 for 10 minutes, immobilizing approximately 528 response units. Increasing concentrations of MafG (two-fold dilutions between 2.5 μM and 0.100 μM, including two blanks) were subsequently passed over the Biotin-compound N1S functionalized chip as well as a streptavidin reference surface. Multiple cycle analysis was carried out, without regenerating the chip between different MafG concentrations. Binding data was reference normalized and processed using Prism software, A one-site binding model was applied to the processed data set to determine binding parameters of MafG binding to N1S.

[2] = target: Nrf2/MafG heterodimer (Homo sapiens, UniProt O15525); test: Split luciferase assay with purified MafG and Nrf2; assay type: biochemical; conditions: in vitro, FIG. 6A; listed as NIS
Excerpt: Data shown are from three technical replicates with standard error. The data are representative of three independent experiments. *p<0.05, **p<0.01, ***p<0.001, student's T-test compared to dimethyl sulfoxide (DMSO).

[3] = tested on: A549 cells; test: Confocal microscopy of FITC-labeled peptides, cell permeability; assay type: cell-based
Experimental: To determine whether this was a result of poor cell permeability by compounds N2S and N3S, fluorophore labeled versions of these peptides were generated, and confocal microscopy was used to determine the abilities of these peptides to enter cells (FIG. 5C).
Briefly, A549 cells at 9.5×10^4 cells/ml in 600 μl media were plated on 10 mm glass-bottomed, 24-well plates (Chemglass Life Sciences Cell Culture Plate, 24-Well, Fisher Scientific, Waltham, MA) and cultured for overnight at 37 °C, 5% CO2, in complete growth medium (RPMI supplemented with 10% fetal calf serum, L-glutamine, and non-essential amino acids). The next day, cells were treated with fresh, pre-warmed complete growth medium supplemented with the desired FITC-labeled peptide or DMSO vehicle control at a final concentration of 100 μM FITC labeled peptide and 1% DMSO. After 90 minutes of treatment, cells were washed three times in warm PBS to remove excess peptide from the cell surface and left in modified Krebs-Ringer buffer solution [KRBH: 134 mM NaCl. 3.5 mM KCl. 1.2 mM KH2PO4, 0.5 mM MgSO4, 1.5 mM CaCl2), 5 mM NaHCO3, 10 mM HEPES (pH 7.4)] containing Hoechst stain at 1 μg/ml. Cells were immediately analyzed under a Nikon A1 confocal microscope (Resonant). The images were taken at 20× magnification with fluorescence excitation wavelengths at 409 for the Hoechst and 488 for the FITC. Images were processed using NIS-Elements AR. Dietrich et al., Cell permeable stapled peptide inhibitor of Wnt signaling that targets 0-catenin protein-protein interactions, Cell Chemical Biology 24(8): 958-968.e5 (2017); Dougherty et al., Enhancing the cell-permeability of stapled peptides with a cyclic cell-penetrating peptide, J Medicinal Chemistry 62(22): 10098 (2019).

[4] = tested on: A549 non-small cell lung cancer cells; test: MTT assay / live cell growth, combination with cisplatin; assay type: cell-based
Experimental: Percent dead in red color indicates higher percentage of death. Data are representative of three independent replicates.
(§1) The ability of compound N1S to increase sensitivity to chemotherapeutics was examined. A549 non-small cell lung cancer cells were seeded into a Corning® 96-Well Cell Culture Plate (clear, sterile, non-treated) and incubated for 24 hours. The cells were treated with cisplatin alone, compound NIS alone, or in combination. Immediately following treatment, the cells were placed into an Incucyte® S3 Live-Cell Analysis Instrument (Sartorius AG, Gottingen, Germany) and imaged every two hours for three days. The Incucyte® S3's analytical software was used to calculate cell confluency at each time point. Synergy was determined using the Chou-Talalay method.
Additionally, an MTT assay was performed on the plate of cells from the Incucyte® study, and a separate, identical plate of cells was incubated for 24 hours. MTT reagent (20 μL of 5 mM stock) was added to each well and incubated for three hours at 37 °C. Following incubation, the plate was spun down at 2,500 rpm for five minutes at room temperature and then aspirated to remove the media. […] The absorbance of each well was measured at 570 nm using a plate reader (Molecular Devices SpectraMax® iD5 Multi-Mode Microplate Reader). […]

[5] = tested on: A549 non-small cell lung cancer cells; test: Incucyte live-cell analysis of combination with cisplatin; synergy by Chou-Talalay method; assay type: cell-based; conditions: relatively low concentrations of cisplatin, varying concentrations of N1S
Experimental: Cl values<1 were synergistic (red), CI values=1 were additive (green), and CI values>1 were antagonistic (not observed).
NTS, cisplatin, or a combination thereof. Error bars represent the standard deviation between three technical replicates. The data are representative of three independent experiments.
as §1

[6] = Hemolysis assay; assay type: cell-based; conditions: red blood cells
Experimental: (§2) Finally, a hemolysis assay was performed based on a method described in Hostetler et al. (2021), supra. The peptides were tested at a final concentration of 100 μM and an average of 0.3% hemolysis was observed (data not shown).

[7] = tested on: red blood cells; test: Hemolysis assay; assay type: cell-based; conditions: 100 μM
Experimental: as §2

[8] = target: T1, MafG; test: Immunoprecipitation (biotinylated pull-down) assay; assay type: binding; conditions: 20-fold unlabeled N1S
Experimental: To show direct interaction between compound NIS and MafG, an immunoprecipitation assay was carried out with His-tagged, purified MafG and biotin-labeled compound NTS peptide. Briefly, a Pierce™ Biotinylated Protein Interaction Pull-Down Kit was purchased from Thermo Fisher, and manufacturer's instructions were followed. Purified His-tagged MafG and biotin-tagged NIS were used as […] proteins. For competition experiments, 20× unlabeled NIS was added after 1 hour incubation with MafG.

T1 sequence (O15525 whole entry): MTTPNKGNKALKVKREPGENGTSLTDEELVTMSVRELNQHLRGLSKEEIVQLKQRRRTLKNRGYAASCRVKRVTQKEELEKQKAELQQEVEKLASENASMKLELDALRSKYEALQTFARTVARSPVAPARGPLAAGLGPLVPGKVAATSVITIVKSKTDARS
Chain of Nrf2/MafG heterodimer (O15525 whole entry, one chain of several): as the sequence (O15525 whole entry) above

Kd ([1]; biotin-labeled N1S on SA chip, His-MafG passed over, one-site binding model, read-out: dissociation constant): 337 nM
direct binding to MafG ([1]; summary of in vitro analysis): directly binds MafG
cellular and nuclear permeability ([3]; FITC-labeled peptide, 100 μM, 90 minutes, A549 cells): good
entry into cells ([3]; summary statement): can enter cells
competition of N1S-biotin/MafG interaction by unlabeled peptide [8]: could be competed away
SMILES: CC[C@H](C)[C@H](NC(C)=O)C(=O)N[C@H](C(=O)N[C@@H](CCC(=O)O)C(=O)N[C@@H](CC(C)C)C(=O)N[C@@H](CCC(=O)O)C(=O)N[C@@]1(C)CCCC=CCCC[C@@](C)(C(=O)N[C@@H](CC(C)C)C(=O)N[C@@H](CCCCN)C(=O)N[C@@H](CC(=O)O)C(=O)N[C@@H](CCC(=O)O)C(=O)N[C@@H](CCCCN)C(=O)N[C@@H](CCC(=O)O)C(N)=O)NC(=O)[C@H](CC(=O)O)NC(=O)[C@H](CC(C)C)NC(=O)[C@H](CC(=O)O)NC1=O)C(C)C [N1S] (Ac-IVELE[S5]DLD[S5]LKDEKE-NH2; staple 6-10)
inhibition of dimerization of Nrf2 with MafG [2]: inhibiting dimerization of Nrf2 with MagF in vitro in a dose-dependent manner; also recorded: inhibits its dimerization with Nrf2
growth compared to either treatment alone ([4]; 50 μM N1S combined with 6 μM cisplatin): greatly reduced levels of growth
sensitization of cancer cell lines to chemotherapeutics ([4]; combination with cisplatin): can greatly sensitize cancer cell lines to chemotherapeutics
synergy with cisplatin [5]: synergy was observed; also recorded: strong synergy
hemolysis at 100 µM [6]: 0.3%
toxicity to red blood cells [7]: no toxicity
